Experimental data taken from patent US20220280594A1, “APPLICATION OF POLYPEPTIDE OR DERIVATIVE THEREOF” (CHENGDU HUITAI BIOMEDICINE CO., LTD., priority 2019, published 2022).
Ends that are not written are not given here. PEG = not defined here

What was measured:
[1] = tested on: human oral epidermoid carcinoma KB cells; assay: scratch assay, migration of KB cells; assay type: cell-based; settings: 10 μM, 48 hours, control group 54.03 ± 4.21
Summary of the method: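 Monolayers of KB cells were scratched, washed with PBS, then cultured 48 hours in 2% FBS medium containing test polypeptide (10 μM) or PBS control, in triplicate wells. From images, migration rate (%) = (original − current scratch width)/original width × 100.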

[2] = tested on: human pancreatic cancer cells (PANC-1); assay: transwell invasion assay, PANC-1 cells; assay type: cell-based; settings: PANC-1 transwell invasion, 10 μM, 24 hours; control group 727 ± 68
Summary of the method: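 Serum-free PANC-1 cells were seeded in matrigel-coated upper chambers with complete medium below. After 4-5 hours at 37° C., peptide was added at 10 μM final. Following 24 hours, invaded cells on the lower membrane surface were fixed, crystal violet-stained, imaged and counted against untreated controls.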

[3] = tested on: human liver cancer cells (HepG2); assay: scratch assay, migration of HepG2 cells; assay type: cell-based; settings: HepG2, 10 μM, 48 hours; control group 71.01 ± 6.63
Summary of the method: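 HepG2 monolayers scratched, then cultured 48 h in 2% FBS medium with test polypeptides at 10 μM versus PBS control, triplicate wells. Migration rate (%) computed from original versus current scratch width in images.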

[4] = tested on: human liver adenocarcinoma cells (SK-HEP-1); assay: transwell invasion assay, SK-HEP-1 cells; assay type: cell-based; settings: SK-HEP-1 transwell invasion, 10 μM, 24 hours; control group 767 ± 91
Summary of the method: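 Serum-free SK-HEP-1 cells were seeded in matrigel-coated upper chambers over complete medium. After 4-5 h, peptide was added to the upper chamber at 10 μM final. Following 24 h at 37° C., invaded cells were fixed, crystal violet-stained, imaged and counted.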

[5] = tested on: human lung cancer cells (A549) subcutaneous xenograft; assay: lung cancer subcutaneous xenograft animal model, intravenous injection; assay type: in vivo, mice (BALB/c-nu/nu); settings: intravenous 60 mg/kg once every other day, 20 days; for Weight of tumor (g) (mean ± SD): control 2.53 ± 0.17; for Volume of tumor (mm^3) (mean ± SD): control 3373.26 ± 581.44
Summary of the method: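 Female BALB/c-nu/nu mice (4-6 weeks) inoculated subcutaneously with ~2×10^6 A549 cells; grouped once tumours exceeded 100 mm^3. Peptides given intravenously at 60 mg/kg for 20 days versus model control. Tumour weight and volume measured at dissection; body weight recorded every other day.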

[6] = tested on: human breast cancer cells (MDA-MB-453); assay: scratch assay, migration of MDA-MB-453 cells; assay type: cell-based; settings: MDA-MB-453, 10 μM, 48 hours; control group 32.42 ± 2.04
Summary of the method: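 Confluent MDA-MB-453 monolayers were scratched, then treated with peptide at 10 μM in 2% FBS medium for 48 h, with a PBS control and triplicate wells. Migration rate (%) was taken as (original − current scratch width)/original width ×100 from images.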

[7] = tested on: human melanoma cells (A375); assay: scratch assay, migration of A375 cells; assay type: cell-based; settings: A375, 10 μM, 48 hours; control group 44.03 ± 6.21
Summary of the method: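 Monolayers scratched, washed with PBS and cultured 48 hours in 2% FBS medium with polypeptides N1-N54 at 10 μM or PBS control, three wells per group. Migration rate (%) = (original − current scratch width)/original width×100, from imaged scratch widths.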

[8] = tested on: human breast cancer cells (MCF-7); assay: scratch assay, migration of MCF-7 cells; assay type: cell-based; settings: MCF-7, 10 μM, 48 hours; control group 30.97 ± 1.79
Summary of the method: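 MCF-7 monolayers scratched, then cultured 48 hours in 2% FBS medium with test peptide at 10 μM versus PBS control, triplicate wells. Migration rate (%) = (original − current scratch width)/original width × 100, measured from images.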

Substance	Migration rate (%) (mean ± SD, P) [1]	Number of cells (mean ± SD, P), invaded cells [2]	Migration rate (%) (mean ± SD, P) [3]	Number of cells (mean ± SD, P), invaded cells [4]	Weight of tumor (g) (mean ± SD) [5]	Volume of tumor (mm^3) (mean ± SD) [5]	Migration rate (%) (mean ± SD, P) [6]	Migration rate (%) (mean ± SD, P) [7]	Migration rate (%) (mean ± SD, P) [8]
N31: SEQ ID NO: 1 with deletion of positions 3, 4, 11 and 15-18 and PEG modification at the carboxyl terminal (YRFLAKENTQD-{PEG}; reading uncertain)	7.17 ± 1.67,*** %	365 ± 57,***	13.64 ± 7.59,*** %	269 ± 17,****	0.62 ± 0.2	1439.74 ± 546.27	10.49 ± 3.13,*** %	12.5 ± 2.29,*** %	9.27 ± 2.23,** %
N32: SEQ ID NO: 1 with deletion of positions 1-3, addition of one amino acid and PEG modification at the carboxyl terminal (RFLAKENVTQDAEDNC-{PEG}; reading uncertain)	11.70 ± 2.95,*** %	251 ± 10,****	15.49 ± 8.35,*** %	252 ± 7,****	0.88 ± 0.38	1630.6 ± 424.84	17.55 ± 3.48,** %	18.22 ± 3.95,** %	14.18 ± 2.82,** %
N33: SEQ ID NO: 1 with deletion of positions 1-5, addition of one amino acid and PEG modification at the carboxyl terminal (LAKENVTQDAEDNC-{PEG}; reading uncertain)	6.01 ± 1.62,*** %	345 ± 27,***	19.27 ± 8.14,*** %	197 ± 32,****	0.57 ± 0.24	1699.23 ± 709.14	10.76 ± 4.13,*** %	9.98 ± 3.11,*** %	18.97 ± 2.44,* %
N34: SEQ ID NO: 1 with A15R, addition of one amino acid at the carboxyl terminal, PEG modification at the amino terminal ({PEG}-YRVRFLAKENVTQDREDNC; reading uncertain)	12.88 ± 1.71,*** %	346 ± 30,***	18.58 ± 7.87,*** %	187 ± 38,****	1.06 ± 0.15	1472.21 ± 914.38	9.57 ± 3.68,*** %	15.11 ± 2.01,*** %	15.23 ± 4.39,* %
N35: SEQ ID NO: 1 with A15R, addition of one amino acid and PEG modification at the carboxyl terminal (YRVRFLAKENVTQDREDNC-{PEG}; reading uncertain)	6.07 ± 2.30,*** %	358 ± 23,***	16.83 ± 7.92,*** %	338 ± 43,***	0.75 ± 0.24	1097.54 ± 216.63	8.46 ± 2.77,*** %	19.51 ± 2.28,** %	17.38 ± 2.55,* %
N37: SEQ ID NO: 1 with addition of two amino acids to the carboxyl terminal and PEG modification at the amino terminal ({PEG}-YRVRFLAKENVTQDAEDNCT; reading uncertain)	24.48 ± 2.51,* %	359 ± 34,***	13.81 ± 6.14,*** %	233 ± 13,****	0.89 ± 0.39	915.97 ± 199.07	15.13 ± 3.55,** %	14.48 ± 2.51,*** %	8.64 ± 3.76,** %
N38: SEQ ID NO: 1 with one amino acid added at each terminal and PEG modification at the carboxyl terminal (FYRVRFLAKENVTQDAEDNC-{PEG}; reading uncertain)	15.57 ± 3.65,* %	2.62 ± 21,****	12.81 ± 7.32,*** %	249 ± 42,****	0.71 ± 0.27	927.9 ± 205.31	12.46 ± 2.5,*** %	15.57 ± 3.65,*** %	6.93 ± 2.24,** %
N39: SEQ ID NO: 1 with addition of two amino acids and PEG modification at the carboxyl terminal (YRVRFLAKENVTQDAEDNTC-{PEG}; reading uncertain)	9.21 ± 4.20,*** %	278 ± 16,****	15.73 ± 6.79,*** %	88 ± 25,****	0.98 ± 0.3	918.84 ± 288.77	11.02 ± 6.8,** %	9.21 ± 3.20,*** %	7.74 ± 2.46,** %
N40: SEQ ID NO: 1 with deletion of positions 1-5 and 15-18, PEG at the amino terminal, two amino acids added at the carboxyl terminal ({PEG}-LAKENVTQDRC; reading uncertain)	6.47 ± 4.39,*** %	273 ± 21,****	32.55 ± 4.09,** %	123 ± 26,****	0.98 ± 0.36	997.42 ± 267.79	13.88 ± 6.51,** %	6.47 ± 1.39,*** %	4.36 ± 1.35,*** %
